The values below come from patent US11331368B2, “Angiotensin receptor agonists and uses thereof” (Monash University, priority 2017, dated 2022).

One assay deals with T1, human AT1R (Homo sapiens, UniProt P30556).
T1 construct: expressed in transfected cells
T1 sequence (P30556 1-359): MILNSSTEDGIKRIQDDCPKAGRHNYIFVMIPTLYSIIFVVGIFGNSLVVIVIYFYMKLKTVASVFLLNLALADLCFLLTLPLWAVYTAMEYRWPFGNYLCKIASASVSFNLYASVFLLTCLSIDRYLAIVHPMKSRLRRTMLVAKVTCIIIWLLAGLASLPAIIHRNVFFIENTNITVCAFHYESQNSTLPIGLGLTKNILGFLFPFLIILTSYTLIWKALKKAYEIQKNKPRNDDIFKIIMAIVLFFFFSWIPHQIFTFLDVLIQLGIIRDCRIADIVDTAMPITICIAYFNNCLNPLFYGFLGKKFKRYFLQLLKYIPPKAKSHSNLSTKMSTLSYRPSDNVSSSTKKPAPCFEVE
Briefly: Competition radioligand binding (125I-Sar1-Ile8-AngII) in AT1R-transfected HEK-293 cells.

The test system of assay [1] is human cardiac fibroblasts. Briefly: TGF-β1-induced collagen production in human cardiac fibroblasts (Western blot). The conditions noted are these: co-treated with TGF-β1 for 3 days, increasing concentrations up to 1 μM. In kind it is cell-based. The method, then:
D) Human cardiac fibroblasts (HCFs) were treated with TGFβ1 to induce a pro-fibrotic phenotype state in cell culture, exemplified by increased collagen-1 production, measured by Western blot. HCFs were treated with TGFβ1 alone, or in the presence of an AT2R agonist for 3 days, and the ability of AT2R agonists to inhibit TGFβ1-induced collagen-1 production was measured.
Commercially available human cardiac fibroblasts (HCF, Catalog #6300, Sciencell, Calif., USA) were grown in T75 flask maintained in an incubator at 37° C., 5% CO2. Complete media composition: M199 media (#11150-059, life technologies)+10% FBS (#10437-028, life technologies)+1% Fibroblast Growth Supplement-2 (#2382, ScienCell)+1% penicillin/streptomycin 10,000 U/ml antibiotics (#15140-122, Life Technologies). Fresh complete media was replenished every alternate day until culture reached 70% confluence in which media is replenished daily until it reached approximately 90% confluence in order to passage/subculture. To subculture, media was discarded and culture was rinsed with warm PBS. After which, culture was detached using warm 0.05% Trypsin+EDTA with gentle swirling of flask to make sure cells were not adherent to surface of flask. Trypsin was then neutralized with complete media and suspension was then transferred into a new falcon tube and centrifuged at 1000 rpm for 5 minutes. Supernatant was discarded and pellet of cells were resuspended with 5 ml of complete media, followed by cell counting. For subculturing/passaging, 1 million HCFs are placed into a T75 flask. For Picrosirius Red (PSR) staining or immunofluorescence experiments, 100 k cells were loaded per well in a 24 well plate lined with round coverslips. […]
Once treatment is complete, cells were washed with warm PBS and detached using Accutase (A6964, Sigma), with 5 minutes incubation at 37° C. […] The supernatant (˜20 ul) was transferred to a new tube and protein concentrations were measured using Biorad Lowry protein assay. Protein quantification of respective markers were performed via standard western blot analysis. […]
For orientation: In western blotting, separated proteins are transferred to a membrane and probed.

The next assay deals with mouse aortae. In words: Vasorelaxation of pre-contracted mouse aortae. To be noted: 0.1-1000 nM, pre-contracted with U46619. An excerpt: FIG. 17: The selective AT2R ligands, β-Pro^7-Ang III and D-Arg^2-β-Pro^7-Ang III, are functional agonists in vasculature.
Assay [2] concerns stroke-prone spontaneously hypertensive rats (SHRSP). Briefly: Stroke-prone spontaneously hypertensive rats (SHRSP), 4-week infusion. The conditions noted are these: 75 pmol/kg/min s.c. for 4 weeks. In kind it is in vivo, rat. On the procedure: FIG. 27: AT2R stimulation by β-Pro^7-Ang III attenuates cardiac fibrosis in stroke-prone spontaneously hypertensive rats (SHRSP). Mean data for cardiac fibrosis determined by picrosirius red staining of transverse heart sections, under bright field microscopy, taken from ˜25-week old, male stroke-prone spontaneously hypertensive rats (SHRSP) that received either saline or β-Pro^7-Ang III (75 pmol/kg/min subcutaneously via osmotic mini-pump) for 4 weeks (n=3-4). Data expressed as mean±s.e.m of percentage positive stained area for fibrosis. **P<0.01 versus saline (unpaired t-test).
For the first time, β-Pro^7-Ang III was tested at the same dose, duration and route of administration (75 pmol/kg/min subcutaneously via osmotic mini-pump for 4 weeks) in adult male stroke-prone spontaneously hypertensive rats (SHRSP).

Protocol for human AT1R: This will lead to the generation of IC50 values that determine the relative ability of test compounds to interact with both Angiotensin receptors.
Cells were grown to approximately 80% confluence before being re-plated into 48 well plates at 1×10^5 cells/well and grown for 48 hours at 37° C. for a whole cell competition binding assay. [125I]-Sar1Ile8Ang II at 50,000 cpm, incubated for 45 minutes at 37° C., in the absence or presence of unlabeled ligands, prepared in binding buffer (DMEM, 0.1% BSA), were used in the competition assays at concentrations ranging from 1 μM to 10 μM. For each experiment, each ligand concentration was tested in duplicate or triplicate, and each experiment was repeated at least 3 separate times. […] The ability of each ligand to inhibit specific binding of [125I]-Sar1Ile8Ang II was measured on a gamma counter with all counts corrected for NSB.

As to “Arg-Val-Tyr-Ile-His-β-Pro-Phe [βPro-Ang III]”, the “binding at AT1R (displacement of 125I-Sar1-Ile8-AngII), in words” value at human AT1R is “bind poorly”. Further, the TGF-β1-induced collagen production result in assay [1] is given as “dose-dependent decreases”. For the same substance, in the assay with mouse aortae, the “vasorelaxation of pre-contracted aortae” value was “concentration-dependent vasorelaxation”. For the same substance, in assay [2], the “SBP in SHRSP” value is “did not affect SBP” and the “cardiac fibrosis (picrosirius red) in SHRSP” value is reported as “significantly reduced cardiac fibrosis”.
